Patent publication US20220112187A1, “PYRAZOLOPYRIDINE AMINE COMPOUNDS FOR THE TREATMENT OF AUTOIMMUNE DISEASE” (Hoffmann-La Roche Inc., priority 2018, published 2022)

The compounds below were run against T1, human TLR8 (Homo sapiens, UniProt Q9NR97) (assay: HEK293-Blue-hTLR-8 cells assay (SEAP reporter, R848 stimulation)). Conditions: HEK293-Blue-hTLR8 cells, R848 ligand, 20 hrs incubation.
T1 sequence (Q9NR97 27-1041): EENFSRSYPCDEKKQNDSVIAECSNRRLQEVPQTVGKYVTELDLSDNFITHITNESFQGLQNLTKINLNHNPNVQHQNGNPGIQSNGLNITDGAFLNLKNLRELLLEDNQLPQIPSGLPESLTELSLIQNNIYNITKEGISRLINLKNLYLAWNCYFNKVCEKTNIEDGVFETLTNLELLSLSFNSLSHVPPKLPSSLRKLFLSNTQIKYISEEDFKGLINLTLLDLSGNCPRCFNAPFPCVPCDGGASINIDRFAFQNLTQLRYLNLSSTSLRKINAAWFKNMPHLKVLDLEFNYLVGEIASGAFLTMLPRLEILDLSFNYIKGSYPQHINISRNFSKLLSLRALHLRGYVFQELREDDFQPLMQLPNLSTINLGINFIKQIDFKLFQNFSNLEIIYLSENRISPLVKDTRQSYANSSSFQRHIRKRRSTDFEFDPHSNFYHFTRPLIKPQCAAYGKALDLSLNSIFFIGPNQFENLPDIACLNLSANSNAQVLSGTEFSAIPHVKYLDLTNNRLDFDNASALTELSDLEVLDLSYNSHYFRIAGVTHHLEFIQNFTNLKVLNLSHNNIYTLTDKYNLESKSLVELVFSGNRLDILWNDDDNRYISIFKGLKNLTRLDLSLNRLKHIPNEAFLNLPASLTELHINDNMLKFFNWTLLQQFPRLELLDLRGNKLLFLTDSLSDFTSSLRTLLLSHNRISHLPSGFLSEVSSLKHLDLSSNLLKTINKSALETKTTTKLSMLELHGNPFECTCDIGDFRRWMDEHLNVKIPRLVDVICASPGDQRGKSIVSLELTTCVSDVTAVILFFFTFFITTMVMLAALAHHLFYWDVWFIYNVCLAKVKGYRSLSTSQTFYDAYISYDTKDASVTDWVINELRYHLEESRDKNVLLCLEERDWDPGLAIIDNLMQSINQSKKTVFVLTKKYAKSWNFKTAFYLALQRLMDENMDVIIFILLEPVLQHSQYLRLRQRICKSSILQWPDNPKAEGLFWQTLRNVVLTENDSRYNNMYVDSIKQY
Assay type: cell-based
Source text: A stable HEK293-Blue-hTLR-8 cell line was purchased from InvivoGen (Cat. #: hkb-htlr8, San Diego, Calif., USA). These cells were originally designed for studying the stimulation of human TLR8 by monitoring the activation of NF-κB. A SEAP (secreted embryonic alkaline phosphatase) reporter gene was placed under the control of the IFN-β minimal promoter fused to five NF-κB and AP-1-binding sites. The SEAP was induced by activating NF-κB and AP-1 via stimulating HEK-Blue hTLR8 cells with TLR8 ligands. Therefore the reporter expression was declined by TLR8 antagonist under the stimulation of a ligand, such as R848, for incubation of 20 hrs. The cell culture supernatant SEAP reporter activity was determined using QUANTI-Blue™ kit (Cat. #: rep-qb1, Invivogen, San Diego, Ca, USA) at a wavelength of 640 nm, a detection medium that turns purple or blue in the presence of alkaline phosphatase.
HEK293-Blue-hTLR8 cells were incubated at a density of 250,000˜450,000 cells/mL in a volume of 170 μL in a 96-well plate in Dulbecco's Modified Eagle's medium (DMEM) containing 4.5 g/L glucose, 50 U/mL penicillin, […], […], 2 mM L-glutamine, 10% (v/v) heat-inactivated fetal bovine serum with addition of 20 μL test compound in a serial dilution in the presence of final DMSO at 1% and 10 μL of 60 uM R848 in above DMEM, perform incubation under 37° C. in a CO2 incubator for 20 hrs. Then 20 μL of the supernatant from each well was incubated with 180 μL Quanti-blue substrate solution at 37° C. for 2 hrs and the absorbance was read at 620˜655 nm using a spectrophotometer. The signalling pathway that TLR8 activation leads to downstream NF-κB activation has been widely accepted, and therefore similar reporter assay was modified for evaluating TLR8 antagonist.

Structure (SMILES)	IC50 [nM]
C[C@@H]1CN(c2ccc(C#N)n3nccc23)C[C@H](CN2C[C@H]3CC[C@@H](N(C)C)[C@H]3C2)O1 (racemic) [Example 75, 4-[(2S,6R)-2-[[4-(dimethylamino)-3,3a,4,5,6,6a-hexahydro-1H-cyclopenta[c]pyrrol-2-yl]methyl]-6-methyl-morpholin-4-yl]pyrazolo[1,5-a]pyridine-7-carbonitrile]	600
C[C@@H]1CN(c2ccc(C#N)n3nccc23)C[C@H](CN2CCC(N3CCCCCC3)CC2)O1 [Example 4, 4-[(2S,6R)-2-[[4-(azepan-1-yl)-1-piperidyl]methyl]-6-methyl-morpholin-4-yl]pyrazolo[1,5-a]pyridine-7-carbonitrile]	26
C[C@@H]1CN(c2ccc(C#N)n3nccc23)C[C@H](CN2CCNCC2)O1 [Example 5, 4-[(2R,6S)-2-methyl-6-(piperazin-1-ylmethyl)morpholin-4-yl]pyrazolo[1,5-a]pyridine-7-carbonitrile]	78
C[C@@H]1CN(c2ccc(C#N)n3nccc23)C[C@H](CNC2CCN(C)CC2)O1 [Example 7, 4-[(2R,6S)-2-methyl-6-[[(1-methyl-4-piperidyl)amino]methyl]morpholin-4-yl]pyrazolo[1,5-a]pyridine-7-carbonitrile]	320
C[C@@H]1CN(c2ccc(C#N)n3nccc23)C[C@H](CN2CC3(CC(N)C3)C2)O1 [Example 11, 4-[(2S,6R)-2-[(6-amino-2-azaspiro[3.3]heptan-2-yl)methyl]-6-methyl-morpholin-4-yl]pyrazolo[1,5-a]pyridine-7-carbonitrile]	930
C[C@@H]1CN(c2ccc(C#N)n3nccc23)C[C@H](CN2CCC(CCN)CC2)O1 [Example 13, 4-[(2S,6R)-2-[[4-(2-aminoethyl)-1-piperidyl]methyl]-6-methyl-morpholin-4-yl]pyrazolo[1,5-a]pyridine-7-carbonitrile]	740
C[C@@H]1CN(c2ccc(C#N)n3nccc23)C[C@H](CN2CCC(N3CCCCC3)CC2)O1 [Example 16, 4-[(2R,6S)-2-methyl-6-[[4-(1-piperidyl)-1-piperidyl]methyl]morpholin-4-yl]pyrazolo[1,5-a]pyridine-7-carbonitrile]	19
C[C@@H]1CN(c2ccc(C#N)n3nccc23)C[C@H](CN2CCC(N)CC2)O1 [Example 17, 4-[(2S,6R)-2-[(4-amino-1-piperidyl)methyl]-6-methyl-morpholin-4-yl]pyrazolo[1,5-a]pyridine-7-carbonitrile]	58
C[C@@H]1CN(c2ccc(C#N)n3nccc23)C[C@H](CN2CC3CNCC3C2)O1 (stereo partly drawn) [Example 22, 4-[(2S,6R)-2-(2,3,3a,4,6,6a-hexahydro-1H-pyrrolo[3,4-c]pyrrol-5-ylmethyl)-6-methyl-morpholin-4-yl]pyrazolo[1,5-a]pyridine-7-carbonitrile]	69
C[C@@H]1CN(c2ccc(C#N)n3nccc23)C[C@H](CN2CCC3(CCCNC3)C2)O1 (stereo partly drawn) [Example 25, 4-[(2S,6R)-2-(2,9-diazaspiro[4.5]decan-2-ylmethyl)-6-methyl-morpholin-4-yl]pyrazolo[1,5-a]pyridine-7-carbonitrile]	88

Further compounds by falling IC50, results first:

IC50 [nM]	Structure (SMILES)
620	C[C@@H]1CN(c2ccc(C#N)n3nccc23)C[C@H](CN2CCC3(CCNCC3)CC2)O1 [Example 3, 4-[(2S,6R)-2-(3,9-diazaspiro[5.5]undecan-3-ylmethyl)-6-methyl-morpholin-4-yl]pyrazolo[1,5-a]pyridine-7-carbonitrile]
610	C[C@@H]1CN(c2ccc(C#N)n3nccc23)C[C@H](CN2CC3(CCNC3)CC2=O)O1 (stereo partly drawn) [Example 20, 4-[(2R,6R)-2-methyl-6-[(3-oxo-2,7-diazaspiro[4.4]nonan-2-yl)methyl]morpholin-4-yl]pyrazolo[1,5-a]pyridine-7-carbonitrile]
610	C[C@@H]1CN(c2ccc(C#N)n3nccc23)C[C@H](CN2CC3(CCNCC3)C2)O1 [Example 24, 4-[(2S,6R)-2-(2,7-diazaspiro[3.5]nonan-2-ylmethyl)-6-methyl-morpholin-4-yl]pyrazolo[1,5-a]pyridine-7-carbonitrile]
380	C[C@@H]1CN(c2ccc(C#N)n3nccc23)C[C@H](CN2CCN(C(=O)CN)CC2)O1 [Example 14, 4-[(2S,6R)-2-[[4-(2-aminoacetyl)piperazin-1-yl]methyl]-6-methyl-morpholin-4-yl]pyrazolo[1,5-a]pyridine-7-carbonitrile]
350	C[C@@H]1CN(c2ccc(C#N)n3nccc23)C[C@H](CN2CCC3(CCNCC3)C2)O1 [Example 18, 4-[(2S,6R)-2-(2,8-diazaspiro[4.5]decan-2-ylmethyl)-6-methyl-morpholin-4-yl]pyrazolo[1,5-a]pyridine-7-carbonitrile]
280	C[C@@H]1CN(c2ccc(C#N)n3nccc23)C[C@H](CN2CCC(CN)CC2)O1 [Example 12, 4-[(2S,6R)-2-[[4-(aminomethyl)-1-piperidyl]methyl]-6-methyl-morpholin-4-yl]pyrazolo[1,5-a]pyridine-7-carbonitrile]
250	C[C@@H]1CN(c2ccc(C#N)n3nccc23)C[C@H](CN2CCC3(CCNC3)CC2)O1 [Example 19, 4-[(2S,6R)-2-(2,8-diazaspiro[4.5]decan-8-ylmethyl)-6-methyl-morpholin-4-yl]pyrazolo[1,5-a]pyridine-7-carbonitrile]
180	C[C@@H]1CN(c2ccc(C#N)n3nccc23)C[C@H](CN2CCN(C)CC2)O1 [Example 15, 4-[(2R,6S)-2-methyl-6-[(4-methylpiperazin-1-yl)methyl]morpholin-4-yl]pyrazolo[1,5-a]pyridine-7-carbonitrile]
140	C[C@@H]1CN(c2ccc(C#N)n3nccc23)C[C@H](CN2CCC3(CCNC3)C2)O1 (stereo partly drawn) [Example 6, 4-[(2S,6R)-2-(2,7-diazaspiro[4.4]nonan-2-ylmethyl)-6-methyl-morpholin-4-yl]pyrazolo[1,5-a]pyridine-7-carbonitrile]
130	C[C@@H]1CN(c2ccc(C#N)n3nccc23)C[C@H](CN2CC3(CCCNC3)C2)O1 [Example 10, 4-[(2S,6R)-2-(2,8-diazaspiro[3.5]nonan-2-ylmethyl)-6-methyl-morpholin-4-yl]pyrazolo[1,5-a]pyridine-7-carbonitrile]
64	CC1CNCCN1C[C@H]1CN(c2ccc(C#N)n3nccc23)C[C@@H](C)O1 (single isomer, unassigned) [Example 50A]
52	CC1CNCCN1C[C@H]1CN(c2ccc(C#N)n3nccc23)C[C@@H](C)O1 (single isomer, unassigned) [Example 50B]
41	C[C@@H]1CN(c2ccc(C#N)n3nccc23)C[C@H](CN2CCCC3(CCCNC3)C2)O1 (stereo partly drawn) [Example 23, 4-[(2S,6R)-2-(2,8-diazaspiro[5.5]undecan-2-ylmethyl)-6-methyl-morpholin-4-yl]pyrazolo[1,5-a]pyridine-7-carbonitrile]
39	C[C@@H]1CN(c2ccc(C#N)n3nccc23)C[C@H](CN2CCC3(CCNC3)C2=O)O1 (stereo partly drawn) [Example 21, 4-[(2R,6R)-2-methyl-6-[(1-oxo-2,7-diazaspiro[4.4]nonan-2-yl)methyl]morpholin-4-yl]pyrazolo[1,5-a]pyridine-7-carbonitrile]
28	C[C@@H]1CN(c2ccc(C#N)n3nccc23)C[C@H](CN2CCC(N3CCN(C)CC3)CC2)O1 [Example 1, 4-[(2R,6S)-2-methyl-6-[[4-(4-methylpiperazin-1-yl)-1-piperidyl]methyl]morpholin-4-yl]pyrazolo[1,5-a]pyridine-7-carbonitrile]
